Row | SMILES | melting point [°C]
1 | Cc1oc(-c2ccccc2)nc1COc1ccc(Cn2cc(C(=O)O)c(C(C)C)n2)cc1 [Example 106, 3-isopropyl-1-[4-(5-methyl-2-phenyl-4-oxazolylmethoxy)benzyl]-1H-pyrazol-4-carboxylic acid] | 194 to 195
2 | CCOc1nn(Cc2ccc(OCc3ccc4ccccc4n3)cc2)cc1CCC(=O)O [Example 209, 3-[3-ethoxy-1-[4-(2-quinolylmethoxy)benzyl]-1H-pyrazol-4-yl]propionic acid] | 140 to 141
3 | CCOc1nn(Cc2ccnc(OCc3nc(-c4ccccc4)oc3C)c2)cc1CCC(=O)O [Example 211, 3-[3-ethoxy-1-[2-(5-methyl-2-phenyl-4-oxazolylmethoxy)-4-pyridylmethyl]-1H-pyrazol-4-yl]propionic acid] | 114 to 115
4 | CCOc1nn(Cc2cncc(OCc3nc(-c4ccccc4)oc3C)c2)cc1CCC(=O)O [Example 213, 3-[3-ethoxy-1-[5-(5-methyl-2-phenyl-4-oxazolylmethoxy)-3-pyridylmethyl]-1H-pyrazol-4-yl]propionic acid] | 133 to 134
5 | CCOC(=O)CCc1cn(Cc2ccc(OC)c(OCc3nc(-c4ccccc4)oc3C)c2)nc1OCC [Example 214, ethyl 3-[3-ethoxy-1-[4-methoxy-3-(5-methyl-2-phenyl-4-oxazolylmethoxy)benzyl]-1H-pyrazol-4-yl]propionate] | 109 to 110
6 | CCOc1nn(Cc2ccc(OC)c(OCc3nc(-c4ccccc4)oc3C)c2)cc1CCC(=O)O [Example 215, 3-[3-ethoxy-1-[4-methoxy-3-(5-methyl-2-phenyl-4-oxazolylmethoxy)benzyl]-1H-pyrazol-4-yl]propionic acid] | 136 to 137
7 | CCOc1cc(Cn2cc(CCC(=O)O)c(OCC)n2)ccc1OCc1nc(-c2ccccc2)oc1C [Example 217, 3-[3-ethoxy-1-[3-ethoxy-4-(5-methyl-2-phenyl-4-oxazolylmethoxy)benzyl]-1H-pyrazol-4-yl]propionic acid] | 105 to 106
8 | CCOC(=O)CCc1cn(Cc2cc(OCc3nc(-c4ccccc4)oc3C)no2)nc1OCC [Example 218, ethyl 3-[3-ethoxy-1-[3-(5-methyl-2-phenyl-4-oxazolylmethoxy)-5-isoxazolylmethyl]-1H-pyrazol-4-yl]propionate] | 82 to 83
9 | CCOc1nn(Cc2cc(OCc3nc(-c4ccccc4)oc3C)no2)cc1CCC(=O)O [Example 219, 3-[3-ethoxy-1-[3-(5-methyl-2-phenyl-4-oxazolylmethoxy)-5-isoxazolylmethyl]-1H-pyrazol-4-yl]propionic acid] | 142 to 143
10 | CCOc1nn(Cc2ccc(OCCn3ncc4ccccc4c3=O)cc2)cc1CCC(=O)O [Example 220, 3-[3-ethoxy-1-[4-[2-[1-oxophthalazin-2(1H)-yl]ethoxy]benzyl]-1H-pyrazol-4-yl]propionic acid] | 152 to 153
11 | CCOc1nn(Cc2cccc(OCCn3ncc4ccccc4c3=O)c2)cc1CCC(=O)O [Example 221, 3-[3-ethoxy-1-[3-[2-[1-oxophthalazin-2(1H)-yl]ethoxy]benzyl]-1H-pyrazol-4-yl]propionic acid] | 146 to 147
12 | CCOc1nn(Cc2cccc(OCc3nc(-c4ccccc4)oc3C)n2)cc1CCC(=O)O [Example 223, 3-[3-ethoxy-1-[6-(5-methyl-2-phenyl-4-oxazolylmethoxy)-2-pyridylmethyl]-1H-pyrazol-4-yl]propionic acid] | 144 to 145
13 | CCOC(=O)CCc1cn(Cc2ccc(OCc3cn4c(Cl)cccc4n3)cc2)nc1OCC [Example 224, ethyl 3-[1-[4-(5-chloroimidazo[1,2-a]pyridin-2-ylmethoxy)benzyl]-3-ethoxy-1H-pyrazol-4-yl]propionate] | 69 to 70
14 | CCOc1nn(Cc2ccc(OCc3cn4c(Cl)cccc4n3)cc2)cc1CCC(=O)O [Example 225, 3-[1-[4-(5-chloroimidazo[1,2-a]pyridin-2-ylmethoxy)benzyl]-3-ethoxy-1H-pyrazol-4-yl]propionic acid] | 153 to 154
15 | CCOc1nn(Cc2ccc(OCc3cn4c(OCC)cccc4n3)cc2)cc1CCC(=O)O [Example 227, 3-[3-ethoxy-1-[4-(5-ethoxyimidazo[1,2-a]pyridin-2-ylmethoxy)benzyl]-1H-pyrazol-4-yl]propionic acid] | 197 to 198
16 | CCOc1nn(Cc2ccc(OCn3nnc4ccccc43)cc2)cc1CCC(=O)O [Example 229, 3-[1-[4-(1H-benzotriazol-1-ylmethoxy)benzyl]-3-ethoxy-1H-pyrazol-4-yl]propionic acid] | 136 to 137
17 | CCOC(=O)CCc1cn(Cc2ccc(OCc3cn4c(-c5ccccc5)cccc4n3)cc2)nc1OCC [Example 231, ethyl 3-[3-ethoxy-1-[4-(5-phenylimidazo[1,2-a]pyridin-2-ylmethoxy)benzyl]-1H-pyrazol-4-yl]propionate] | 104 to 105
18 | CCOc1nn(Cc2ccnc(OCc3nc(-c4ccco4)oc3C)c2)cc1CCC(=O)O [Example 234, 3-[3-ethoxy-1-[2-[2-(2-furyl)-5-methyl-4-oxazolylmethoxy]-4-pyridylmethyl]-1H-pyrazol-4-yl]propionic acid] | 138 to 139
19 | CCOc1nn(Cc2ccnc(OCc3cn4c(Cl)cccc4n3)c2)cc1CCC(=O)O [Example 236, 3-[1-[2-(5-chloroimidazo[1,2-a]pyridin-2-ylmethoxy)-4-pyridylmethyl]-3-ethoxy-1H-pyrazol-4-yl]propionic acid] | 160 to 161
20 | CCOc1nn(Cc2ccnc(OCc3cn4c(-c5ccccc5)cccc4n3)c2)cc1CCC(=O)O [Example 238, 3-[3-ethoxy-1-[2-(5-phenylimidazo[1,2-a]pyridin-2-ylmethoxy)-4-pyridylmethyl]-1H-pyrazol-4-yl]propionic acid] | 177 to 178
21 | CCOc1nn(Cc2ccc(OCc3cncc(-c4ccccc4)c3)cc2)cc1CCC(=O)O [Example 240, 3-[3-ethoxy-1-[4-(5-phenyl-3-pyridylmethoxy)benzyl]-1H-pyrazol-4-yl]propionic acid] | 92 to 93
22 | CCOc1nn(Cc2cc(OCc3ccc4ccccc4n3)no2)cc1CCC(=O)O [Example 242, 3-[3-ethoxy-1-[3-(2-quinolylmethoxy)-5-isoxazolylmethyl]-1H-pyrazol-4-yl]propionic acid] | 123 to 124
23 | CCOc1nn(Cc2ccc(OCc3nc4ccccc4n3C)cc2)cc1CCC(=O)O [Example 248, 3-[3-ethoxy-1-[4-(1-methyl-1H-benzimidazol-2-ylmethoxy)benzyl]-1H-pyrazol-4-yl]propionic acid] | 177 to 178

Now from value to compound:

Row | melting point [°C] | SMILES
24 | 137 to 138 | COc1ccc(-c2nn(Cc3ccc(OCc4nc(-c5ccccc5)oc4C)cc3)cc2CCC(=O)O)cc1 [Example 102, 3-[3-(4-methoxyphenyl)-1-[4-(5-methyl-2-phenyl-4-oxazolylmethoxy)benzyl]-1H-pyrazol-4-yl]propionic acid]
25 | 92 to 93 | Cc1oc(-c2ccco2)nc1COc1ccc(Cn2cc(CCC(=O)O)c(-c3ccc(C(F)(F)F)cc3)n2)cc1 [Example 103, 3-[1-[4-[2-(2-furyl)-5-methyl-4-oxazolylmethoxy)benzyl]-3-(4-trifluoromethylphenyl)-1H-pyrazol-4-yl]propionic acid]
26 | 125 to 126 | Cc1oc(-c2ccco2)nc1COc1ccc(Cn2cc(CCC(=O)O)c(-c3ccc(F)cc3)n2)cc1 [Example 105, 3-[3-(4-fluorophenyl)-1-[4-[2-(2-furyl)-5-methyl-4-oxazolylmethoxy)benzyl]-1H-pyrazol-4-yl]propionic acid]
27 | 97 to 98 | Cc1oc(-c2ccccc2)nc1COc1ccc(Cn2cc(CCC(=O)O)c(C(C)C)n2)cc1 [Example 108, 3-[3-isopropyl-1-[4-(5-methyl-2-phenyl-4-oxazolylmethoxy)benzyl]-1H-pyrazol-4-yl]propionic acid]
28 | 158 to 159 | CCCc1c(CCC(=O)O)cnn1Cc1ccc(OCc2nc(-c3ccccc3)oc2C)cc1 [Example 112, 3-[1-[4-(5-methyl-2-phenyl-4-oxazolylmethoxy)benzyl]-5-propyl-1H-pyrazol-4-yl]propionic acid]
29 | 142 to 143 | Cc1oc(-c2ccccc2)nc1CCOc1ccc(Cn2cc(CCC(=O)O)c(-c3ccccc3)n2)cc1 [Example 114, 3-[1-[4-[2-(5-methyl-2-phenyl-4-oxazolyl)ethoxy]benzyl]-3-phenyl-1H-pyrazol-4-yl]propionic acid]
30 | 85 to 86 | Cc1oc(-c2ccccc2)nc1COc1ccc(CCn2cc(CCC(=O)O)c(-c3ccccc3)n2)cc1 [Example 116, 3-[1-[2-[4-(5-methyl-2-phenyl-4-oxazolylmethoxy)phenyl]ethyl]-3-phenyl-1H-pyrazol-4-yl]propionic acid]
31 | 124 to 125 | Cc1oc(-c2ccccc2)nc1COc1ccc(Cn2cc(CCC(=O)O)cn2)cc1 [Example 142, 3-[1-[4-(5-methyl-2-phenyl-4-oxazolylmethoxy)benzyl]-1H-pyrazol-4-yl]propionic acid]
32 | 140 to 141 | CCOc1nn(Cc2ccc(OCc3ccc(-c4ccccc4)nc3)cc2)cc1CCC(=O)O [Example 230, 3-[3-ethoxy-1-[4-(6-phenyl-3-pyridylmethoxy)benzyl]-1H-pyrazol-4-yl]propionic acid]
33 | 160 to 161 | CCOc1nn(Cc2ccc(OCc3cn4c(-c5ccccc5)cccc4n3)cc2)cc1CCC(=O)O [Example 232, 3-[3-ethoxy-1-[4-(5-phenylimidazo[1,2-a]pyridin-2-ylmethoxy)benzyl]-1H-pyrazol-4-yl]propionic acid]
34 | 120 to 121 | CCOc1nn(Cc2ccc(OCc3nc(-c4ccccc4)ccc3Cl)cc2)cc1CCC(=O)O [Example 244, 3-[1-[4-(3-chloro-6-phenyl-2-pyridylmethoxy)benzyl]-3-ethoxy-1H-pyrazol-4-yl]propionic acid]
35 | 95 to 96 | CCOc1nn(Cc2ccc(OCc3cccc(-c4ccccc4)n3)cc2)cc1CCC(=O)O [Example 246, 3-[3-ethoxy-1-[4-(6-phenyl-2-pyridylmethoxy)benzyl]-1H-pyrazol-4-yl]propionic acid]
36 | 127 to 128 | CCOc1nn(Cc2ccc(OCc3ccc(-c4ccccc4)cn3)cc2)cc1CCC(=O)O [Example 250, 3-[3-ethoxy-1-[4-(5-phenyl-2-pyridylmethoxy)benzyl]-1H-pyrazol-4-yl]propionic acid]
